In patent US6518243B1, “Desleucyl glycopeptide antibiotics and methods of making same” (Trustees of Princeton University, priority 1999, dated 2003):

Tests used:
E. faecium ATCC 49624 = test: MIC determination in BHI media, OD600; type: cell-based; settings: BHI + 0.1% casamino acids, 18 hours at 37° C., ≧90% OD600 inhibition
Procedure: (§1) Logarithmically growing cells were diluted to approximately 5×10^5 CFU/ml and subjected to test compounds solubilized and serially diluted in DMSO. […] After 18 hours at 37° C., the OD600 was determined by reading the ninety-six well microtiter plates on a microplate reader. For a given concentration, an MIC determination was made if: […]

E. faecium CL 4931 = test: MIC determination in BHI media, OD600; type: cell-based; settings: BHI + 0.1% casamino acids, 18 hours at 37° C., ≧90% OD600 inhibition
Procedure: as §1

S aureus ATCC 29213 = test: MIC determination in BHI media, OD600; type: cell-based; settings: BHI + 0.1% casamino acids, 18 hours at 37° C., ≧90% OD600 inhibition
Procedure: as §1

S. Aureus ATCC 33591 = test: MIC determination in BHI media, OD600; type: cell-based; settings: BHI + 0.1% casamino acids, 18 hours at 37° C., ≧90% OD600 inhibition
Procedure: as §1

E. faecalis (CL 4877) = test: Zone of inhibition screen, 96 well agar array format; type: cell-based; design: scale not given here
Procedure, shortened: (§2)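 Panel screening of every compound against several bacterial strains, among them E. faecium ATCC 49624, was done in a 96-well agar array.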

S. aureus (ATCC 29213) = test: as above; type: cell-based; design: scale not given here
Procedure, shortened: as §2

E. faceium (ATCC 49624) = test: as above; type: cell-based, E. faecium; settings: zone of inhibition relative to 1 mg/ml stock solution of p-chlorobiphenylvancomycin;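 further: score 3 means fourfold and score 4 sixteenfold the reference zone size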
Procedure: The antibacterial activity of each of the compounds against the bacterial strains E. faceium (ATCC 49624), S. epidermidis (ATCC 12228), S. aureus (ATCC 29213), E. faecalis (CL 4877) and E. faecalis (ATCC 292121) was tested. Each of the compounds was screened in a 96 will agar array format.

[1] = test system: S. epidermidis (ATCC 12228); test: as above; type: cell-based; design: scale not given here
Procedure, shortened: as §2

[2] = zone of inhibition relative to 1 mg/ml stock solution of p-chlorobiphenylvancomycin
[3] = zone of inhibition relative to 1 mg/ml p-chlorobiphenylvancomycin

SMILES | MIC E. faecium ATCC 49624 (E. faecium ATCC 49624) [µg/mL] | MIC E. faecium CL 4931 (E. faecium CL 4931) [µg/mL] | MIC S. aureus ATCC 29213 (S aureus ATCC 29213) [µg/mL] | MIC S. aureus ATCC 33591 (S. Aureus ATCC 33591) [µg/mL] | zone score, E. faecalis CL 4877 (E. faecalis (CL 4877); [2]) | zone score, S. aureus ATCC 29213 (S. aureus (ATCC 29213); [2]) | zone score, E. faecium ATCC 49624 (E. faceium (ATCC 49624)) | zone score, S. epidermidis ATCC 12228 [1, 2] | zone score, S. epidermidis ATCC 12228 [1, 3] | zone score, E. faecalis CL 4877 (E. faecalis (CL 4877); [3]) | zone score, S. aureus ATCC 29213 (S. aureus (ATCC 29213); [3])
CC(OC(C)(C)C)C(N)C(=O)NC1C(=O)NC(CC(N)=O)C(=O)NC2C(=O)NC3C(=O)NC(C(=O)NC(C(=O)O)c4cc(O)cc(O)c4-c4cc3ccc4O)C(O)c3ccc(c(Cl)c3)Oc3cc2cc(c3OC2OC(CO)C(O)C(O)C2OC2CC(C)(NCc3ccc(-c4ccc(Cl)cc4)cc3)C(O)C(C)O2)Oc2ccc(cc2Cl)C1O (stereo not drawn) [Compound 344] | 0.78 | 25 |  |  |  |  |  |  |  |  | 
CC1OC(OC2C(Oc3c4cc5cc3Oc3ccc(cc3Cl)C(O)C3NC(=O)C(NC(=O)C5NC(=O)C(CC(N)=O)NC(=O)C(NC(=O)C(N)CSCc5ccccc5)C(O)c5ccc(c(Cl)c5)O4)c4ccc(O)c(c4)-c4c(O)cc(O)cc4C(C(=O)O)NC3=O)OC(CO)C(O)C2O)CC(C)(NCc2ccc(-c3ccc(Cl)cc3)cc2)C1O (stereo not drawn) [Compound 332] |  | 25 |  |  |  |  |  |  |  |  | 
CCOCC(N)C(=O)NC1C(=O)NC(CC(N)=O)C(=O)NC2C(=O)NC3C(=O)NC(C(=O)NC(C(=O)O)c4cc(O)cc(O)c4-c4cc3ccc4O)C(O)c3ccc(c(Cl)c3)Oc3cc2cc(c3OC2OC(CO)C(O)C(O)C2OC2CC(C)(NCc3ccc(-c4ccc(Cl)cc4)cc3)C(O)C(C)O2)Oc2ccc(cc2Cl)C1O (stereo not drawn) [Compound 524] | 0.25 | 25 | 0.39 | 0.39 |  |  |  |  |  |  | 
CCOCC(NC)C(=O)NC1C(=O)NC(CC(N)=O)C(=O)NC2C(=O)NC3C(=O)NC(C(=O)NC(C(=O)O)c4cc(O)cc(O)c4-c4cc3ccc4O)C(O)c3ccc(c(Cl)c3)Oc3cc2cc(c3OC2OC(CO)C(O)C(O)C2OC2CC(C)(NCc3ccc(-c4ccc(Cl)cc4)cc3)C(O)C(C)O2)Oc2ccc(cc2Cl)C1O (stereo not drawn) [Compound 527] | 0.25 | 25 | 0.39 | 0.39 |  |  |  |  |  |  | 
CC1OC(OC2C(Oc3c4cc5cc3Oc3ccc(cc3Cl)C(O)C3NC(=O)C(NC(=O)C5NC(=O)C(CC(N)=O)NC(=O)C(NC(=O)C(N)CO)C(O)c5ccc(c(Cl)c5)O4)c4ccc(O)c(c4)-c4c(O)cc(O)cc4C(C(=O)O)NC3=O)OC(CO)C(O)C2O)CC(C)(NCc2ccc(-c3ccc(Cl)cc3)cc2)C1O (stereo not drawn) [Compound 63] | 0.78 | 25 | 0.78 | 0.78 | 2 | 2 |  |  |  |  | 
CC1OC(OC2C(Oc3c4cc5cc3Oc3ccc(cc3Cl)C(O)C3NC(=O)C(NC(=O)C5NC(=O)C(CC(N)=O)NC(=O)C(NC(=O)CNC(=O)CN)C(O)c5ccc(c(Cl)c5)O4)c4ccc(O)c(c4)-c4c(O)cc(O)cc4C(C(=O)O)NC3=O)OC(CO)C(O)C2O)CC(C)(NCc2ccc(-c3ccc(Cl)cc3)cc2)C1O (stereo not drawn) [Compound 68] | 0.39 |  | 0.78 | 0.78 |  |  | 2 |  |  |  | 
CC(C)CC(N)C(=O)NC1C(=O)NC(CC(N)=O)C(=O)NC2C(=O)NC3C(=O)NC(C(=O)NC(C(=O)O)c4cc(O)cc(O)c4-c4cc3ccc4O)C(O)c3ccc(c(Cl)c3)Oc3cc2cc(c3OC2OC(CO)C(O)C(O)C2OC2CC(C)(NCc3ccc(-c4ccc(Cl)cc4)cc3)C(O)C(C)O2)Oc2ccc(cc2Cl)C1O (stereo not drawn) [Compound 38] | 0.78 |  | 0.78 | 0.78 |  | 2 | 2 |  |  |  | 
CNC(COC(C)(C)C)C(=O)NC1C(=O)NC(CC(N)=O)C(=O)NC2C(=O)NC3C(=O)NC(C(=O)NC(C(=O)O)c4cc(O)cc(O)c4-c4cc3ccc4O)C(O)c3ccc(c(Cl)c3)Oc3cc2cc(c3OC2OC(CO)C(O)C(O)C2OC2CC(C)(NCc3ccc(-c4ccc(Cl)cc4)cc3)C(O)C(C)O2)Oc2ccc(cc2Cl)C1O (stereo not drawn) [Compound 343] | 0.39 | 25 |  | 0.78 |  |  |  |  |  |  | 
CC1OC(OC2C(Oc3c4cc5cc3Oc3ccc(cc3Cl)C(O)C3NC(=O)C(NC(=O)C5NC(=O)C(CC(N)=O)NC(=O)C(NC(=O)CNC(=O)C5CCCN5)C(O)c5ccc(c(Cl)c5)O4)c4ccc(O)c(c4)-c4c(O)cc(O)cc4C(C(=O)O)NC3=O)OC(CO)C(O)C2O)CC(C)(NCc2ccc(-c3ccc(Cl)cc3)cc2)C1O (stereo not drawn) [Compound 85] |  |  |  |  | 2 | 2 | 2 | 2 |  |  | 
CC1OC(OC2C(Oc3c4cc5cc3Oc3ccc(cc3Cl)C(O)C3NC(=O)C(NC(=O)C5NC(=O)C(CC(N)=O)NC(=O)C(NC(=O)C(N)COCc5ccccc5)C(O)c5ccc(c(Cl)c5)O4)c4ccc(O)c(c4)-c4c(O)cc(O)cc4C(C(=O)O)NC3=O)OC(CO)C(O)C2O)CC(C)(NCc2ccc(-c3ccc(Cl)cc3)cc2)C1O (stereo not drawn) [Compound 342] | 0.39 | 25 | 0.78 | 0.78 |  |  |  |  |  |  | 
CCOCC(=O)NC1C(=O)NC(CC(N)=O)C(=O)NC2C(=O)NC3C(=O)NC(C(=O)NC(C(=O)O)c4cc(O)cc(O)c4-c4cc3ccc4O)C(O)c3ccc(c(Cl)c3)Oc3cc2cc(c3OC2OC(CO)C(O)C(O)C2OC2CC(C)(NCc3ccc(-c4ccc(Cl)cc4)cc3)C(O)C(C)O2)Oc2ccc(cc2Cl)C1O (stereo not drawn) [Compound 287] |  | 25 |  |  |  |  |  |  | 2 | 2 | 2
C[C@H]1O[C@H](O[C@H]2[C@H](Oc3c4cc5cc3Oc3ccc(cc3Cl)[C@@H](O)[C@@H](NC(=O)[C@@H](N)CCC(=O)OCc3ccccc3)C(=O)N[C@@H](CC(N)=O)C(=O)N[C@H]5C(=O)N[C@H]3C(=O)N[C@H](C(=O)N[C@@H](C(=O)O)c5cc(O)cc(O)c5-c5cc3ccc5O)[C@H](O)c3ccc(c(Cl)c3)O4)O[C@H](CO)[C@@H](O)[C@@H]2O)C[C@@](C)(NCc2ccc(-c3ccc(Cl)cc3)cc2)[C@H]1O [Compound 26] |  | > 25 | 0.78 | 0.78 | 2 | 2 |  |  |  |  | 
CC1OC(OC2C(Oc3c4cc5cc3Oc3ccc(cc3Cl)C(O)C3NC(=O)C(NC(=O)C5NC(=O)C(CC(N)=O)NC(=O)C(NC(=O)C(N)CCC(N)=O)C(O)c5ccc(c(Cl)c5)O4)c4ccc(O)c(c4)-c4c(O)cc(O)cc4C(C(=O)O)NC3=O)OC(CO)C(O)C2O)CC(C)(NCc2ccc(-c3ccc(Cl)cc3)cc2)C1O (stereo not drawn) [Compound 91] | 0.78 | 25 | 0.78 | 0.78 |  |  |  | 2 |  |  | 
CC1OC(OC2C(Oc3c4cc5cc3Oc3ccc(cc3Cl)C(O)C3NC(=O)C(NC(=O)C5NC(=O)C(CC(N)=O)NC(=O)C(NC(=O)C(CCC(N)=O)NC(=O)OC(C)(C)C)C(O)c5ccc(c(Cl)c5)O4)c4ccc(O)c(c4)-c4c(O)cc(O)cc4C(C(=O)O)NC3=O)OC(CO)C(O)C2O)CC(C)(NCc2ccc(-c3ccc(Cl)cc3)cc2)C1O (stereo not drawn) [Compound 136] | 0.78 | > 25 | 0.78 | 0.78 |  |  |  | 2 |  |  | 
CC1OC(OC2C(Oc3c4cc5cc3Oc3ccc(cc3Cl)C(O)C3NC(=O)C(NC(=O)C5NC(=O)C(CC(N)=O)NC(=O)C(NC(=O)C(N)CSSC(C)(C)C)C(O)c5ccc(c(Cl)c5)O4)c4ccc(O)c(c4)-c4c(O)cc(O)cc4C(C(=O)O)NC3=O)OC(CO)C(O)C2O)CC(C)(NCc2ccc(-c3ccc(Cl)cc3)cc2)C1O (stereo not drawn) [Compound 345] | 0.39 | 25 | 0.78 | 0.78 |  |  |  |  |  |  | 
CC1OC(OC2C(Oc3c4cc5cc3Oc3ccc(cc3Cl)C(O)C3NC(=O)C(NC(=O)C5NC(=O)C(CC(N)=O)NC(=O)C(NC(=O)C(CC(N)=O)NC(=O)OC(C)(C)C)C(O)c5ccc(c(Cl)c5)O4)c4ccc(O)c(c4)-c4c(O)cc(O)cc4C(C(=O)O)NC3=O)OC(CO)C(O)C2O)CC(C)(NCc2ccc(-c3ccc(Cl)cc3)cc2)C1O (stereo not drawn) [Compound 135] | 0.39 | > 25 |  |  |  | 2 |  | 2 |  |  | 
COCC(=O)NC1C(=O)NC(CC(N)=O)C(=O)NC2C(=O)NC3C(=O)NC(C(=O)NC(C(=O)O)c4cc(O)cc(O)c4-c4cc3ccc4O)C(O)c3ccc(c(Cl)c3)Oc3cc2cc(c3OC2OC(CO)C(O)C(O)C2OC2CC(C)(NCc3ccc(-c4ccc(Cl)cc4)cc3)C(O)C(C)O2)Oc2ccc(cc2Cl)C1O (stereo not drawn) [Compound 303] |  | 25 |  |  |  |  |  |  | 2 |  | 
